Values of other authors, collected in patent US20050232985A1, “Ciprofloxacin hcl” (priority 2002, published 2005).
Where a name gives a salt, the structure may show the parent alone.

Tests used:
[1] = tested on: Pseudomonas aerugenosa, golden yellow Staphylococcus and Streptococcus pneumoniae
[2] = tested on: Excherichia Coli, Klebsiella SPP., and other Enterobacter SPP., Bacillus—negative

## O=C(O)c1cn(C2CC2)c2cc(N3CCNCC3)c(F)cc2c1=O [Ciprofloxacin Hydrochloride, I-cyclopropyl-6-fluoro-1,4-dihydro-4-oxo-7-(I-piperazinyl)-3-quinolinecarboxylic acid]
[1]
  antibacterial action versus Norfloxacin and Peifloxacin: better than other known derivatives
Streptococcus SPP.
  antibacterial action versus Penicillin kinds of antibiotic: less than Penicillin kinds of antibiotic
[2]
  antibacterial activity: wide range antibacterial activity
